Results from ChEMBL document CHEMBL4842383 (J Med Chem, 2021).
pEC50, pIC50: −log10 of the molar value.

Tests used:
[1] = target: Macrophage colony-stimulating factor 1 receptor (Homo sapiens, UniProt P07333); assay: Inhibition of human recombinant GST-CSF1R (residues L534 to C972) expressed in Sf9 insect cells using poly(Glu,Tyr) as substrate incubated for 20 mins by ATP Kinase Glo assay
[2] = target: T1, Aurora kinase A (Homo sapiens) (UniProt O14965); assay: Inhibition of recombinant GST-AURKA (residues Ser123 to Ser401) (unknown origin) expressed in Sf9 insect cells using tetra(-LRRASLG) peptide as substrate at 1 uM incubated for 90 mins by ATP Kinase Glo assay
T1 sequence (whole entry): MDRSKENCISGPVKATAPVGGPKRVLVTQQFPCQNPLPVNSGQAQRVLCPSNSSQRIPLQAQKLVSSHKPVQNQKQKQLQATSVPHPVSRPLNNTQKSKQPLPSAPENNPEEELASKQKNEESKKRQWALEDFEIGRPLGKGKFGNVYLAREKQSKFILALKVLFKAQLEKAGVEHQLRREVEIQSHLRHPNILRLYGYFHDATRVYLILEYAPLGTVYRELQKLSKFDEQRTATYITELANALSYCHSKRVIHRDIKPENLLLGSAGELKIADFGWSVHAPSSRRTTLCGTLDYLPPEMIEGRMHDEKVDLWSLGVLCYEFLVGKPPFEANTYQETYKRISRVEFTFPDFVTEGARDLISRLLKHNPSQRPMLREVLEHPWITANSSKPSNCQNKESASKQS

[3] = target: Aurora kinase B (Homo sapiens, UniProt Q96GD4); assay: Inhibition of human recombinant full length GST-AURKB using tetra(-LRRASLG) peptide as substrate at 0.1 uM incubated for 20 mins by ATP Kinase Glo assay; assay type: biochemical; settings: Sf9
[4] = system: BaF3; assay: Antiproliferative activity against mouse BaF3 cells transfected with human ETV6-CSF1R assessed as reduction in cell viability measured after 72 hrs by MTS method; settings: BaF3, 72 h
[5] = system: NFS-60; assay: Antiproliferative activity against mouse NFS-60 cells transfected with human ETV6-CSF1R assessed as reduction in cell viability measured after 72 hrs by MTS method; assay type: functional, cell-based; settings: NFS-60, 72 h
[6] = Half life in Sprague-Dawley rat at 5 mg/kg, iv measured up to 24 hrs by LC-MS/MS analysis; assay type: ADME, organism-based; settings: in vivo
[7] = Clearance in Sprague-Dawley rat at 5 mg/kg, iv measured up to 24 hrs by LC-MS/MS analysis; assay type: ADME, organism-based; settings: in vivo
[8] = Volume of distribution at steady state in Sprague-Dawley rat at 5 mg/kg, iv measured up to 24 hrs by LC-MS/MS analysis; assay type: ADME, organism-based; settings: in vivo, read-out: Vdss
[9] = Dose normalized AUC (0 to inf) in Sprague-Dawley rat at 5 mg/kg, iv measured up to 24 hrs by LC-MS/MS analysis; assay type: ADME, organism-based; settings: in vivo
[10] = Half life in Sprague-Dawley rat at 20 to 25 mg/kg, po measured up to 24 hrs by LC-MS/MS analysis; assay type: ADME, organism-based; settings: in vivo, dose 20-25 mg/kg
[11] = Dose normalized Cmax in Sprague-Dawley rat at 20 to 25 mg/kg, po measured up to 24 hrs by LC-MS/MS analysis; assay type: ADME, organism-based; settings: in vivo, dose 20-25 mg/kg
[12] = Tmax in Sprague-Dawley rat at 20 to 25 mg/kg, po measured up to 24 hrs by LC-MS/MS analysis; assay type: ADME, organism-based; settings: in vivo, dose 20-25 mg/kg
[13] = Dose normalized AUC (0 to inf) in Sprague-Dawley rat at 20 to 25 mg/kg, po measured up to 24 hrs by LC-MS/MS analysis; assay type: ADME, organism-based; settings: in vivo, dose 20-25 mg/kg
[14] = Oral bioavailability in Sprague-Dawley rat at 20 to 25 mg/kg measured up to 24 hrs by LC-MS/MS analysis; assay type: ADME, organism-based; settings: in vivo, dose 20-25 mg/kg
[15] = target: T2, Aurora kinase A (Homo sapiens, UniProt O14965); assay: Inhibition of recombinant GST-AURKA (residues Ser123 to Ser401) (unknown origin) expressed in Sf9 insect cells using tetra(-LRRASLG) peptide as substrate incubated for 90 mins by ATP Kinase Glo assay
T2 sequence (O14965 whole entry): T1 sequence (whole entry)

Sequence of Macrophage colony-stimulating factor 1 receptor (P07333 whole entry, the tested form may be a part): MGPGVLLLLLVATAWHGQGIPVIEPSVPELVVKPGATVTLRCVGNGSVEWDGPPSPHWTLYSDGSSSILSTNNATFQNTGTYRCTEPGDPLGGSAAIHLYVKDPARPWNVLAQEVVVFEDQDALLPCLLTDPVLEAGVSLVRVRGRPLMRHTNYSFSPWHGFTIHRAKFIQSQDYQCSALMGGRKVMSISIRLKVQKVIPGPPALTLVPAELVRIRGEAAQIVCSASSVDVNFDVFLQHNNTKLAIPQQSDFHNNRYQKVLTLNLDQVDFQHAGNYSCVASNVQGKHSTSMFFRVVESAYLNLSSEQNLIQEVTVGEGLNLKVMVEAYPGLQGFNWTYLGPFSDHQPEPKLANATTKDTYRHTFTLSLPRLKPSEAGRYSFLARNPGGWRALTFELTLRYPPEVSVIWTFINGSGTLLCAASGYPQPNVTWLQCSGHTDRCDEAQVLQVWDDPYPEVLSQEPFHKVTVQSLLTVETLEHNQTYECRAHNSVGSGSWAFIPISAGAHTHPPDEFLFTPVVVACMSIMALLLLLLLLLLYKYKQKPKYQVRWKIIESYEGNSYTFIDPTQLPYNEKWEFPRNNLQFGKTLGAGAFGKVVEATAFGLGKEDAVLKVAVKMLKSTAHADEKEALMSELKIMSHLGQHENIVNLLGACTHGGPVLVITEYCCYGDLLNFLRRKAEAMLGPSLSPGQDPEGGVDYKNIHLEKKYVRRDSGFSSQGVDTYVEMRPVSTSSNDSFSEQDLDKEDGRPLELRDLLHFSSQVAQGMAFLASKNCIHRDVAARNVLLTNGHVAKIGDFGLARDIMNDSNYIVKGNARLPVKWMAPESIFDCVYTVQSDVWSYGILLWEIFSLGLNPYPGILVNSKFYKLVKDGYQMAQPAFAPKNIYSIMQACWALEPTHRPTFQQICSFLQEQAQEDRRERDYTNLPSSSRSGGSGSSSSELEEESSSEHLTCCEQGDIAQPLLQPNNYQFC
Sequence of Aurora kinase B (Q96GD4 whole entry): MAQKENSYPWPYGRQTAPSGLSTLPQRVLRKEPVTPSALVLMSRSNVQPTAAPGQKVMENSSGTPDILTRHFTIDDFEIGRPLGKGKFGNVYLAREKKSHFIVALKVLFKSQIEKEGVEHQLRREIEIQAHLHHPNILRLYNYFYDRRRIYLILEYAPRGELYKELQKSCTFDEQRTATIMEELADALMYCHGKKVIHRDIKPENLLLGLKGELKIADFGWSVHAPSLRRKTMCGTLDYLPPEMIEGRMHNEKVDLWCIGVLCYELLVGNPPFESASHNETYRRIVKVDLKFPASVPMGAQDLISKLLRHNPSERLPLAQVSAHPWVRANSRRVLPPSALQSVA

Compound | pIC50 [1] | inhibition [2] [%] | inhibition [3] [%] | pEC50 [4] | pEC50 [5] | also measured
O=C(Nc1ccccc1)Nc1ccc(Oc2ncnc3cc(N4CCCC4)ccc23)cc1 | 7.20 | 43 | 43 | – | – | –
COc1ccc(CNC(=O)Nc2ccc(Oc3ncnc4cc(N(C)C)ccc34)cc2)cn1 | 7.90 | 2 | 18 | 7.06 | 7.17 | half-life [6]: 1.2 h; clearance [7]: 24.7 mL/min/kg; Vd [8]: 1.4 L/kg; AUCt/dose [9]: 767 ng.hr/mL per mg/kg; half-life [10]: 4.8 h; Cmax/dose [11]: 35 ng/mL; Tmax [12]: 2.3 h; AUCt/dose [13]: 236 ng.hr/mL per mg/kg; bioavailability [14]: 30.7%
CN(C)c1ccc2c(Oc3ccc(NC(=O)NCc4ccc(C(F)(F)F)cc4)cc3)ncnc2c1 | 7.04 | 16 | 25 | 6.82 | 7.01 | –
CN(C)c1ccc2c(Oc3ccc(NC(=O)NCc4nccs4)cc3)ncnc2c1 | 7.62 | 2 | 19 | 6.50 | 6.69 | –
CN(C)c1ccc2c(Oc3ccc(NC(=O)Nc4cccc(Cl)c4)cc3)ncnc2c1 | 7.98 | 71 | 82 | 7.70 | 7.26 | –
COc1cc2ncnc(Oc3ccc(NC(=O)Nc4ccccc4)cc3)c2cc1OC | 7.52 | 46 | – | – | – | –
CN(C)c1ccc2c(Oc3ccc(NC(=O)NCc4ccn(C)n4)cc3)ncnc2c1 | 6.69 | 58 | – | 6.78 | – | –
O=C(Nc1ccccc1)Nc1ccc(Oc2ncnc3ccc(N4CCCC4)cc23)cc1 | < 8.00 | 11 | – | – | – | –
CN(C)c1ccc2c(Oc3ccc(NC(=O)Nc4ccccc4)cc3)ncnc2c1 | 7.68 | 40 | 61 | 7.18 | 7.04 | –
COc1ccc2c(Nc3ccc(NC(=O)Nc4ccccc4)cc3)ncnc2c1 | 6.91 | 56 | 24 | – | – | –
CN(C)c1ccc2c(Oc3ccc(NC(=O)NCc4c(F)c(F)c(F)c(F)c4F)cc3)ncnc2c1 | 7.73 | 3 | 34 | 6.97 | – | –
CN(C)c1ccc2c(Oc3ccc(NC(=O)Nc4ccc(Cl)cc4)cc3)ncnc2c1 | 6.79 | 70 | 50 | 7.74 | 7.60 | –
CN(C)c1ccc2c(Oc3ccc(NC(=O)NCc4cccnc4)cc3)ncnc2c1 | 7.10 | 1 | 15 | 7.06 | 6.82 | –
CN(C)c1ccc2c(Oc3ccc(NC(=O)NCc4ccccc4)cc3)ncnc2c1 | 7.79 | 7 | 7 | 7.07 | 7.24 | –
Cc1ccc(CNC(=O)Nc2ccc(Oc3ncnc4cc(N(C)C)ccc34)cc2)cn1 | 7.96 | 4 | 9 | 7.42 | 7.17 | half-life [6]: 10.5 h; clearance [7]: 5.6 mL/min/kg; Vd [8]: 1.5 L/kg; AUCt/dose [9]: 1578 ng.hr/mL per mg/kg; half-life [10]: 2.4 h; Cmax/dose [11]: 21 ng/mL; Tmax [12]: 3.2 h; AUCt/dose [13]: 164 ng.hr/mL per mg/kg; bioavailability [14]: 10.4%
CN(C)c1ccc2ncnc(Oc3ccc(NC(=O)Nc4ccccc4)cc3)c2c1 | 7.39 | 29 | – | – | – | –
CN(C)c1ccc2c(Oc3ccc(NC(=O)NCCc4ccccc4)cc3)ncnc2c1 | 7.81 | 35 | 35 | 7.09 | 6.79 | –
O=C(Nc1cccc(Cl)c1)Nc1ncc(CCNc2ncnc3cc(F)ccc23)s1 | < 8.00 | – | 83 | – | – | pIC50 [15]: 8.05
CN(C)c1ccc2c(Nc3ccc(NC(=O)Nc4ccccc4)cc3)ncnc2c1 | 6.61 | 33 | 27 | – | – | –

Compound | pIC50 [1] | inhibition [2] [%] | inhibition [3] [%] | pEC50 [4] | pEC50 [5] | also measured
CC(NC(=O)Nc1ccc(Oc2ncnc3cc(N(C)C)ccc23)cc1)c1nccs1 (stereo not given) | 8.85 | 6 | – | 6.80 | – | –
CN(C)CCCOc1ccc2c(NCCc3cnc(NC(=O)Nc4cccc(Cl)c4)s3)ncnc2c1 | 7.72 | – | – | – | – | –
COc1ccc(CNC(=O)Nc2ccc(Oc3ncnc4cc(N(C)C)ccc34)cc2)cc1OC | 7.08 | 4 | – | 6.88 | – | –
CN(C)c1ccc2c(Oc3ccc(NC(=O)NCc4ccc(C#N)cc4)cc3)ncnc2c1 | 7.30 | 5 | – | 7.85 | 7.64 | –
COc1ccc(NC(=O)Nc2ccc(Oc3ncnc4cc(N(C)C)ccc34)cc2)cc1Cl | 7.95 | 53 | 44 | 7.37 | 7.28 | –
CN(C)c1ccc2c(Oc3ccc(NC(=O)Nc4ccccc4Cl)cc3)ncnc2c1 | 7.81 | 43 | 79 | 7.18 | 6.84 | –
O=C(Nc1ccccc1)Nc1ccc(Oc2ncnc3cc(F)ccc23)cc1 | 6.12 | 13 | 27 | – | – | –
COc1ccc(Cl)cc1NC(=O)Nc1ccc(Oc2ncnc3cc(N(C)C)ccc23)cc1 | 7.44 | 70 | 41 | 7.07 | 6.85 | –
CN(C)c1ccc2c(Oc3ccc(NC(=O)Nc4ccc(C(F)(F)F)cc4)cc3)ncnc2c1 | 7.19 | 46 | 37 | 7.31 | – | –
COc1cc(Oc2ccnc3cc(OC)c(OC)cc23)ccc1NC(=O)NC(C)c1nccs1 (stereo not given) | – | 42 | 47 | 7.12 | 7.11 | –
CN(C)c1ccc2c(Oc3ccc(NC(=O)NCc4ccc(S(N)(=O)=O)cc4)cc3)ncnc2c1 | 7.79 | 2 | 62 | 6.18 | 5.96 | –
COc1ccc2c(Oc3ccc(NC(=O)Nc4ccccc4)cc3)ncnc2c1 | 7.12 | 36 | 48 | – | – | –
COc1cccc(NC(=O)Nc2ccc(Oc3ncnc4cc(N(C)C)ccc34)cc2)c1 | 7.94 | 46 | 79 | 7.19 | 6.97 | –
COc1ccc(CNC(=O)Nc2ccc(Oc3ncnc4cc(N(C)C)ccc34)cc2)cc1 | 7.89 | 6 | 29 | 7.04 | 7.09 | half-life [6]: 20.6 h; clearance [7]: 16.5 mL/min/kg; Vd [8]: 9 L/kg; AUCt/dose [9]: 1252 ng.hr/mL per mg/kg; half-life [10]: 6.7 h; Cmax/dose [11]: 1.7 ng/mL; Tmax [12]: 6 h; AUCt/dose [13]: 15 ng.hr/mL per mg/kg; bioavailability [14]: 1.6%
CN(C)c1ccc2c(Oc3ccc(NC(=O)Nc4cccc(C(F)(F)F)c4)cc3)ncnc2c1 | 7.19 | 35 | 60 | 7.35 | – | –
COc1ccc2c(NCCc3cnc(NC(=O)Nc4cccc(Cl)c4)s3)ncnc2c1 | 6.95 | – | 89 | – | – | pIC50 [15]: 8.05
CNc1ccc2c(Oc3ccc(NC(=O)Nc4ccccc4)cc3)ncnc2c1 | 7.36 | 57 | 76 | – | – | –
COc1ccccc1NC(=O)Nc1ccc(Oc2ncnc3cc(N(C)C)ccc23)cc1 | 7.52 | 24 | 53 | 6.94 | 6.84 | –
Nc1ccc2c(Oc3ccc(NC(=O)Nc4ccccc4)cc3)ncnc2c1 | 7.24 | 47 | 74 | – | – | –
